Entries after “also recorded” stand apart in the source; their conditions may differ.
Experiments:
[1] = system: TEAD transcriptional activity; test: TEAD luciferase reporter assay; type: cell-based, human; conditions: for TEAD reporter activity: 293T and H2373 cells, 24 hours, comparison of TNKS and PARP1/2 inhibitors
Method: A set of in-house kinase and commercially available inhibitors was used to screen for effects on the TEAD luciferase reporter. 293 cells expressing the TEAD reporter along with renilla-lucifease (20:1 ratio) were plated at low density (2×10^4 cells) in 24 well plates in triplicate. 24 hours after plating, the cells were treated with 10 μM of each compound or DMSO as control. 24 hours later, dual-luciferase reporter assay was performed according to the manufacturer's protocol (Promega, Madison Wis., USA), using TD-20e Luminometer (Turner Biosystem, Promega, Madison Wis., USA). TEAD reporter activity was normalized to renilla luciferase. The Log 2 values were calculated for each compound using the DMSO sample as control.

[2] = system: angiomotin proteins (AMOT, AMOTL2); test: Western blot of angiomotin protein levels; type: cell-based, human; conditions: 10 μM; for angiomotin protein levels (AMOT in 293T, AMOTL2 in H2373): 293T and H2373 cells
Method: (§1) Cells were harvested in EBC lysis buffer (50 mM Tris-HCl at pH 7.5, 150 mM NaCl, 5 mM EDTA, 0.5% NP-40), supplemented with Complete Mini Protease and Phosphatase Inhibitor Cocktails (Roche, Indianapolis, Ind., USA). Cells were lysed and 30-80 μg protein subjected to SDS-PAGE followed by transfer onto an Immobilon-FL PVDF membrane (Millipore, Billerica, Mass., USA) and incubation with the indicated antibodies. Detection was carried out with an Odyssey Infrared Imaging System (LI-COR Biosciences, Lincoln, Nebr., USA) with IR dye-tagged secondary antibodies (LI-COR Biosciences). The following antibodies were utilized: mouse anti-YAP, goat anti-NF2, mouse anti-AMOT, goat anti-AMOTL1, goat anti-AMOTL2 (Santa Cruz, Dallas, Tex., USA), mouse anti-FlagM2 (Sigma, Saint Louis, Mo., USA), rabbit anti-LATS1, rabbit anti-LATS2, rabbit anti-p-YAP (Cell Signaling, Danvers, Mass., USA), TNKS1/2 (Santa Cruz, Dallas, Tex., USA), mouse anti-TEAD4, mouse anti-RAS (Thermo Scientific, Waltham, Mass., USA), mouse anti-α-Tubulin, mouse anti-β-actin (Sigma, Saint Louis, Mo., USA).

[3] = system: AMOT, AMOTL1, AMOTL2 mRNA; test: qRT-PCR of angiomotin mRNA levels; type: cell-based, human; conditions: 293T and H2373 cells, 10 μM, 24 hours
Method: (§2) Total RNA was extracted from cells using the RNeasy Mini kit (Qiagen, Hilden, Germany) following the manufacturer's instructions. 1 μg of total RNA was used for cDNA synthesis using Superscript II (Invitrogen, Carlsbad, Calif., USA) according to the manufacturer's instructions.
(§3) Quantitative RT-PCR was performed using the ViiA™ 7 Real-Time PCR System (Life Technologies, Carlsbad, Calif., USA) using the FastStart SYBR Green Master mix (Roche, Indianapolis, Ind., USA). Primers were as follows: […]
(§4) PCR was performed in 384 well plates in 10 μl total volumes under the following conditions: 95° C. for 15 min, followed by 40 cycles of 94° C. for 15 sec, 61° C. for 30 sec, and 72° C. for 30 sec. Specificity was verified by a dissociation curve. Results were analyzed with ViiA7 RUO software (Life Technologies, Carlsbad, Calif., USA). Gene expression levels were normalized to GAPDH expression.

H2373 cells = test: Clonogenic proliferation (colony formation) assay, H2373; type: cell-based, human; conditions: for proliferation / colony formation: H2373 cells (NF2 mutant), 10 to 14 days
Method: (§6) For clonogenic proliferation assay, cells were plated in triplicate at 1×10^3 cells in 6-well plates. For analysis of the effects of inhibitors on cell proliferation, fresh medium with inhibitor was replaced every 48 hours. After 10 to 14 days of treatment, cultures were fixed and stained with 1% crystal violet (in ethanol) and photographed.

[4] = system: TEAD target genes (CTGF, CYR61, ANKRD1); test: Quantitative RT-PCR of TEAD target genes; type: cell-based, human; conditions: for TEAD target gene expression (CTGF, CYR61, ANKRD1 mRNA): 293T and H2373 cells, 10 μM
Method: as §2, §3, §4

293T cells = test: Clonogenic proliferation (colony formation) assay, 293T; type: cell-based, human; conditions: 10 to 14 days
Method: as §6

[5] = system: liver tumor growth induced by YAP overexpression or NF2 inactivation; conditions: mice, tumors induced by YAP overexpression or NF2 inactivation; cited from earlier work
[6] = system: MCF10A cells stably expressing HRAS-V12; test: Anchorage-independent growth assay, HRAS-V12-transformed MCF10A; type: cell-based, human; conditions: MCF10A stably expressing HRAS-V12, 3 weeks
Method: (§5) Cells were fed every 4 days for 3 weeks by adding 0.2 mL of growth medium containing either 0.1% DMSO as a control or compounds in 0.1% DMSO at the concentrations indicated.

[7] = system: MCF10A cells stably expressing YAP-WT or YAP-S127A; test: Anchorage-independent growth assay, YAP-transformed MCF10A; type: cell-based, human; conditions: 3 weeks
Method: as §5

YAP S127 phosphorylation = test: Western blot of YAP S127 phosphorylation; type: cell-based, human; conditions: H2373 cells, varying XAV939 concentrations, 24 hours
Method: as §1

[8] = system: Hippo pathway mutant tumor cells and Hippo pathway wild-type cells; test: Cell cycle profile by Propidium Iodide staining; type: cell-based, human; conditions: 10 μM, 72 hours
Text: Statistical analysis of the cell cycle profile is shown below. Error bars indicate SD of experiments performed in triplicate.

[9] = system: YAP overexpressing MCF10A cells; conditions: cited from earlier work
PTEN = test: Western blot of PTEN levels; type: cell-based, human; conditions: H2052 and H2373 cells, 10 μM, time course
Method: as §1

AMOT-YAP protein complex = test: Co-immunoprecipitation of endogenous AMOT and YAP; type: cell-based, human; conditions: 293T cells, 10 μM, 24 hours
Method: Cells were harvested in RIPA lysis buffer (50 mM Tris-Cl; pH 8.0, 5 mM EDTA, 1% Triton X-100, 0.1% sodium deoxycholate, 0.1% SDS, 150 mM NaCl) supplemented with Complete Mini Protease and Phosphatase Inhibitor Cocktails. 800 μg proteins were incubated with 10 μg of antibody overnight at 4° C. Anti-mouse or anti-rabbit IgG (Santa Cruz, Dallas, Tex., USA) was used as a negative control. Immunoprecipitated complexes were captured by 2 h incubation at 4° C. with Dynabeads Protein A/G B (Invitrogen, Carlsbad, Calif., USA), followed by three washes in lysis buffer. Immunoprecipitated complexes were eluted by boiling for 5 min with Laemmli buffer (150 mM Tris-Cl; pH 6.8, 20% glycerol, 4% SDS, 0.002% bromophenol blue, 2% 2-mercaptoethanol) with 10% of the total lysates run on the same gel for comparative immunoblot analysis.

angiomotin = conditions: reported by Wang et al. 2015; cited from earlier work
YAP = test: Immunofluorescence of YAP sub-cellular localization; type: cell-based, human; conditions: 24 hours
Method: Cells cultured on glass coverslips were fixed for 10 min with 4% paraformaldehyde in 1×PBS at 37° C. and permeabilized for 3 min with 0.02% Triton-X100, following exposure for 1 hour to a blocking solution (PBS containing 5% BSA). Coverslips were then incubated at room temperature with the following primary antibodies: anti-YAP (Santa Cruz, Dallas, Tex., USA) and anti-Flag M2 (Sigma, Saint Louis, Mo., USA). Corresponding secondary antibodies were Alexa fluor conjugated (Molecular Probes, Eugene, Oreg., USA). 2 μg/ml DAPI was used as a counter stain and was used to label nuclei. Imaging was performed using an Axioplan 2 Imaging System (Zeiss, Oberkochen, Germany).

Compound: O=C(Nc1cccc2cccnc12)c1ccc(N2C(=O)[C@@H]3[C@H](C2=O)[C@@H]2C=C[C@H]3C2)cc1 [IWR1]
- TEAD reporter activity [1]: able to inhibit
- angiomotin protein levels (AMOT in 293T, AMOTL2 in H2373) ([2]; 24 hours): strikingly increased
- AMOT, AMOTL1, AMOTL2 mRNA levels [3]: did not markedly affect
- proliferation / colony formation (H2373 cells): significantly decreased
- TEAD target gene expression (CTGF, CYR61, ANKRD1 mRNA) ([4]; 24 hours): able to inhibit

Compound: C[C@]1(c2nc3c(C(N)=O)cccc3[nH]2)CCCN1 [ABT-888]
- TEAD reporter activity [1]: did not affect
- angiomotin protein levels (AMOT in 293T, AMOTL2 in H2373) ([2]; 24 hours): lacked any effect
- proliferation / colony formation (293T cells): did not affect
- AMOT, AMOTL1, AMOTL2 mRNA levels [3]: lacked any effect
- proliferation / colony formation (H2373 cells): did not affect
- TEAD target gene expression (CTGF, CYR61, ANKRD1 mRNA) ([4]; 24 hours): did not affect

Compound: verteporfin
- liver tumor growth [5]: suppressed
- HRAS-V12-induced agar colony formation [6]: completely blocked
- YAP-WT- and YAP-S127A-induced anchorage-independent cell growth (soft agar colonies) [7]: completely blocked

Compound: Oc1nc(-c2ccc(C(F)(F)F)cc2)nc2c1CSCC2 [XAV939]
- YAP S127 phosphorylation status (YAP S127 phosphorylation): did not show any significant differences
- inhibitory effect on TEAD transcriptional activity under AMOTL2 silencing ([1]; H2373 cells, doxycycline-inducible AMOTL2 shRNA, 10 μM XAV939): almost completely rescued
- cell cycle profile ([8]; cell lines which were not growth inhibited): no detectable cell cycle alteration
- cell cycle profile ([8]; tumor lines whose proliferation was inhibited): increased G1 and reduced S phase fractions
- HRAS-V12-induced agar colony formation [6]: lacked any effect; also recorded: not inhibited
- acini formation in matrigel [9]: inhibited
- angiomotin protein levels (AMOT in 293T, AMOTL2 in H2373) ([2]; 24 hours): strikingly increased
- AMOTL2 protein levels ([2]; H2052 cells, 24 hrs): increased
- AMOTL2 protein levels, time course ([2]; H2373 as compared to resistant H2052 cells, 12 days): stabilized higher, durable levels
- AMOTL2 levels ([2]; Hippo mutant MESO25 and 211H cells, 24 hours): Increased
- durable stabilization of AMOTL2 ([2]; resistant H2052 cells): failed to durably stabilize
- levels of PTEN (PTEN): increased modestly
- AMOT, AMOTL1, AMOTL2 mRNA levels [3]: did not markedly affect
- inhibitory effect on colony formation under AMOTL2 silencing (H2373 cells; H2373 cells, doxycycline-inducible AMOTL2 shRNA, 10 μM XAV939, 14 days): almost completely rescued
- AMOT-YAP protein complex (AMOT-YAP protein complex): enrichment
- expression of TEAD target genes (CTGF, CYR61, ANKRD1 mRNA) ([4]; H2052 cells, 24 hours): only modestly affected
- expression of TEAD target genes ([4]; MCF10A cells stably overexpressing YAP-S127A): inhibited
- expression of TEAD target genes (CTGF, CYR61, ANKRD1 mRNA) ([4]; all cell lines tested with the exception of H2052, 24 hours): markedly decreased
- angiomotin stabilization (angiomotin): stabilized
- YAP sub-cellular localization (YAP; H2373 cells, endogenous YAP): induced YAP re-localization to the cytoplasm
- YAP-S127A sub-cellular localization (YAP; MCF10A stably expressing YAP-S127A): significant shift of YAPS127A to the cytoplasm

Compound: CC(C)c1ccc(-c2cc(=O)c3ccccc3o2)cc1 [MN-64]
- TEAD reporter activity [1]: able to inhibit
- angiomotin protein levels (AMOT in 293T, AMOTL2 in H2373) ([2]; 24 hours): strikingly increased
- AMOT, AMOTL1, AMOTL2 mRNA levels [3]: did not markedly affect
- proliferation / colony formation (H2373 cells): significantly decreased
- TEAD target gene expression (CTGF, CYR61, ANKRD1 mRNA) ([4]; 24 hours): able to inhibit

— patent publication US11246868B2, “Treatment of hippo pathway mutant tumors and methods of identifying subjects as candidates for treatment” (ICAHN SCHOOL OF MEDICINE AT MOUNT SINAI, priority 2016, dated 2022)
